The subject of one experiment is HL-60 cells. Nature of the experiment: HL-60 differentiation (nitro blue tetrazolium reduction). Format: cell-based, human. The following applies: differentiation of HL-60 cells into monocytes, FIG. 2, read-out: EC50, HL-60 cell differentiation. The procedure: The study drugs were dissolved in ethanol and the concentrations determined using UV spectrophotometry. Serial dilutions were prepared so that a range of drug concentrations could be tested without changing the final concentration of ethanol (≦0.2%) present in the cell cultures.
Human promyelocytic leukemia (HL60) cells were grown in RPMI-1640 medium containing 10% fetal bovine serum. The cells were incubated at 37° C. in the presence of 5% CO2.
HL60 cells were plated at 1.2×10^5 cells/ml. Eighteen hours after plating, cells in duplicate were treated with drug. Four days later, the cells were harvested and a nitro blue tetrazolium reduction assay was performed (Collins et al., 1979; J. Exp. Med. 149:969-974). The percentage of differentiated cells was determined by counting a total of 200 cells and recording the number that contained intracellular black-blue formazan deposits. Verification of differentiation to monocytic cells was determined by measuring phagocytic activity (data not shown).

The test system of experiment [1] is intestinal calcium transport. Nature of the experiment: Intestinal calcium transport, everted gut sac method. Format: in vivo, rat. The conditions noted are these: for intestinal calcium transport: everted gut sac. The procedure:
(§1) Male, weanling Sprague-Dawley rats were placed on Diet 11 (0.47% Ca) diet +AEK oil for one week followed by Diet 11 (0.02% Ca) +AEK oil for 3 weeks. The rats were then switched to a diet containing 0.47% Ca for one week followed by two weeks on a diet containing 0.02% Ca. Dose administration began during the last week on 0.02% calcium diet. Four consecutive ip doses were given approximately 24 hours apart. Twenty-four hours after the last dose, blood was collected from the severed neck and the concentration of serum calcium determined as a measure of bone calcium mobilization. The first 10 cm of the intestine was also collected for intestinal calcium transport analysis using the everted gut sac method.
Intestinal calcium transport was evaluated in the same groups of animals using the everted gut sac method (FIG. 5). […] Thus, it may be concluded that Vit II Z has essentially similar intestinal calcium transport activity at the recommended lower doses to that of 1,25(OH)2D3.

For experiment [2], the system named is bone calcium mobilization. Briefly: Bone calcium mobilization (serum calcium) in vitamin D-deficient rats. Format: in vivo, rat. The method, then:
as §1
Calcium mobilization from bone and intestinal calcium absorption in vitamin D-deficient animals. Using vitamin D-deficient rats on a low calcium diet (0.02%), the activities of Vit II Z and 1,25(OH)2D3 in intestine and bone were tested. As expected, the native hormone (1,25(OH)2D3) increased serum calcium levels at all dosages (FIG. 4).

The subject of experiment [3] is 24-hydroxylase (24Ohase) gene promoter. Briefly: In vitro transcription assay (24-hydroxylase promoter luciferase reporter in ROS 17/2.8 bone cells). The class given is cell-based. The following applies: ROS 17/2.8 cells, FIG. 3, read-out: EC50, transcriptional activity in bone cells. The procedure: Transcription activity was measured in ROS 17/2.8 (bone) cells that were stably transfected with a 24-hydroxylase (24Ohase) gene promoter upstream of a luciferase reporter gene (Arbour et al., 1998). Cells were given a range of doses. Sixteen hours after dosing the cells were harvested and luciferase activities were measured using a luminometer.
RLU=relative luciferase units.

Experiment [4] deals with T1, full-length recombinant rat vitamin D receptor (Rattus norvegicus, UniProt P13053).
T1 construct: Full-length recombinant rat receptor was expressed in E. coli BL21 (DE3) Codon Plus RIL cells; histidine tag (C); made in house; host or cells: E. coli BL21 (DE3) Codon Plus RIL
T1 sequence (P13053 1-423): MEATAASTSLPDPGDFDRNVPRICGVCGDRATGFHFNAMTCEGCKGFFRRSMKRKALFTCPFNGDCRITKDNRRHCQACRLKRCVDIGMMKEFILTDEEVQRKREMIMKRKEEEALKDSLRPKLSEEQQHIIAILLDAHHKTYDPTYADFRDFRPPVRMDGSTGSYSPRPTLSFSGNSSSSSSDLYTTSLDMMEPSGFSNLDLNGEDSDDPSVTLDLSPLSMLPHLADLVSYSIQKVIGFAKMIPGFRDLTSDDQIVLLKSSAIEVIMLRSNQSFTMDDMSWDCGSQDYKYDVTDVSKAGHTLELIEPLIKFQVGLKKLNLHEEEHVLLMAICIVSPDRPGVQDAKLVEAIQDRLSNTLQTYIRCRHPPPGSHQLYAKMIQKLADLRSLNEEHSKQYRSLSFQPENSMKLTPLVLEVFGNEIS
Nature of the experiment: Vitamin D receptor binding, competition with [3H]-1,25(OH)2D3. The following applies: FIG. 1. The method, then: Full-length recombinant rat receptor was expressed in E. coli BL21 (DE3) Codon Plus RIL cells and purified to homogeneity using two different column chromatography systems. The first system was a nickel affinity resin that utilizes the C-terminal histidine tag on this protein. The protein that was eluted from this resin was further purified using ion exchange chromatography (S-Sepharose Fast Flow). Aliquots of the purified protein were quick frozen in liquid nitrogen and stored at −80° C. until use. For use in binding assays, the protein was diluted in TEDK50 (50 mM Tris, 1.5 mM EDTA, pH7.4, 5 mM DTT, 150 mM KCl) with 0.1% Chaps detergent. The receptor protein and ligand concentration were optimized such that no more than 20% of the added radiolabeled ligand was bound to the receptor.
Radiolabeled and unlabeled ligands were added to 100 mcl of the diluted protein at a final ethanol concentration of ≦10%, mixed and incubated overnight on ice to reach binding equilibrium. The following day, 100 mcl of hydroxylapatite slurry (50%) was added to each tube and mixed at 10-minute intervals for 30 minutes. […] After the final wash, the pellets were transferred to scintillation vials containing 4 ml of Biosafe II scintillation cocktail, mixed and placed in a scintillation counter. Total binding was determined from the tubes containing only radiolabeled ligand.

Structures are written as SMILES. “Also recorded” adds a separate entry of the source. Where two headings read alike, the source gives them in different places.

With `C=C1/C(=C\C=C2/CCC[C@]3(C)[C@@H]([C@H](C)CCCC(C)(C)O)CC[C@@H]23)C[C@@H](O)C[C@@H]1O` [1α,25-dihydroxyvitamin D3, reference compound], the EC50 turned out to be 2 nM with HL-60 cells and 0.2 nM in experiment [3]. Also, the intestinal calcium transport result in experiment [1] (at the tested doses) is “significant increase”. Further, the serum calcium levels result in experiment [2] (all dosages, rats on 0.02% Ca diet, FIG. 4) is given as “increased”.
In the case of `C=C1[C@H](O)CC(=C/C=C2\CCC[C@]3(C)/C(=C\CCCC(C)(C)O)CC[C@@H]23)C[C@H]1O` [Vit II Z, 2-methylene-(17Z)-17(20)-dehydro-19,21-dinor-1α,25-dihydroxyvitamin D3], the values for the concentration giving a half-maximal response (EC50) (in the experiment with HL-60 cells (Homo sapiens); in experiment [3]) were 0.08 nM and 0.03 nM, respectively. Besides, the intestinal calcium transport result in experiment [1] (29 pmol/day) was “promotes intestinal calcium transport”; in experiment [1] (2340 pmol/day), “very significant intestinal calcium transport activity”. In experiment [1] (vitamin D-deficient rats, ip, FIG. 5), the “intestinal calcium transport activity compared to 1,25(OH)2D3” value was “about the same or equal activity; also recorded: about the same as or equal to”. Moreover, the “VDR binding affinity compared to 1,25-(OH)2D3” value in experiment [4] is “nearly the same affinity”. Also, in experiment [4] (full-length recombinant rat VDR), the inhibition constant (Ki) came out at 0.2 nM. The “bone calcium mobilization activity compared to 1,25(OH)2D3” value in experiment [2] (87 pmol/day and 780 pmol/day for 4 consecutive days, rats on 0.02% Ca diet) was “about the same as or equal to”; in experiment [2] (vitamin D-deficient rats, ip, FIG. 4) it was “about the same or equal bone calcium mobilization activity”. For the same molecule, the “bone calcium mobilization, effect of increasing the dose” value in experiment [2] (2340 pmol/day, rats on 0.02% Ca diet) was “without any substantial additional effect”.

(Values after patent publication US7893043B2, “2-methylene-(17Z)-17(20)-dehydro-19,21-dinor-vitamin D analogs” (Wisconsin Alumni Research Foundation, priority 2008, dated 2011).)
